Here are results for 89 molecules from a melting point compilation (Tetko et al.; mined from patent text by program, amines drawn as free bases though some values may be those of a salt).

A word on the melting point: it is the temperature of the solid-liquid transition. `CC(=O)Nc1ccc(C2=NNC(=O)C2)cc1` came in with a melting point of 254 to 258 °C. Consider `CN1C(=O)CCCc2cc(Nc3ncc(Cl)c(Nc4ccc(N5CCOCC5)cc4C(N)=O)n3)ccc21`, for which the melting point was in the range of 288 to 290 °C.

In the case of `O=C(NCC(F)(F)F)C1(CCCc2ccccc2)c2ccccc2-c2ccccc21`, the melting point is 86 to 88 °C. Then `OC12CCCC1N=C(S)N2c1ccccn1` (centres undefined), with 126 to 127 °C; and `COc1ccc(-c2nccc(N3CCN(c4c(C)c(C)c5c(c4C)CC(C)(C)O5)CC3)n2)cc1`, with 240 to 242 °C; and `NC(Cc1c[nH]c2ccccc12)C(=O)Nc1c(F)cc(F)cc1F` (centres undefined), with 45 to 55 °C. The molecule `CCCSc1ncc(CC(NC(C)=O)C(=O)O)n1Cc1ccccc1Cl` (centres undefined) gave a melting point of 182 to 184 °C.

Molecule `Nc1ccc2nc(CN3CCCC3)ccc2c1` yielded a melting point of 102 to 104 °C. Next, `CC(C)CC(CO)NC(=O)C(Cc1c[nH]cn1)NC(=O)C(Cc1cccc2ccccc12)NC(=O)COc1cccc2ccccc12` (centres undefined): 215 to 217 °C; `CC(=O)C1=C(C)c2ccccc2C1(C)C`: 104 to 105 °C. Regarding `O=c1ccc(C(F)(F)F)cn1Cc1ccccc1NCCN1CCOCC1`, the melting point was in the range of 101 to 103 °C. Then `O=C(NC(=O)c1c(F)cccc1F)Nc1ccc(Cl)cn1`, with 226 to 229 °C; and `O=C(COc1ccc(Cl)c2c(=O)c3ccccc3sc12)c1ccccc1`, with 174 to 176 °C. On to `COc1cc(C(=O)O)ccc1OCCCCCOc1nc2ccccc2s1`, for which the melting point is 130 to 131 °C.

Take `Cc1cc(SC2=C(O)CC(CCc3ccc(O)cc3)(c3ccccc3)OC2=O)c(C(C)(C)C)cc1CO` (centres undefined): the melting point lay within 199 to 201 °C. Molecule `CCC1CC(=O)N(Cc2ccc(NC(=O)C(C)C)cc2)N=C1c1ccc(OC)c(OC)c1` (centres undefined) gave a melting point of 144 °C. Molecule `O=C(Cc1cccc(Cl)c1F)c1ccc(F)c(Cl)c1` yielded a melting point of 109 to 111 °C. `N#CC=Cc1ccc(F)cc1` gave a melting point of 64 to 65 °C. For the molecule `O=Cc1cc(Br)c(O)c(OCc2ccccc2)c1`, the melting point fell in the range of 160 to 162 °C. `CN(C)c1nc(Cl)nc(NCC(F)(F)F)n1` had a melting point of 181 to 184 °C.

For the molecule `CCN(CC)C(=O)c1cc(S(=O)(=O)Cc2ccccc2)c(N2CCC(c3ccccc3)CC2)cc1N(CC)CCN(C)C`, the melting point lay in the range of 117 to 118 °C. Then `CCCCCN1CCN(c2cccc3c2C[C@H](NC(C)=O)CC3)CC1`, with 119 to 120 °C. Molecule `O=C(O)C#CC(O)(c1ccc(OCc2ccc3ccccc3n2)cc1)c1ccc(OCc2ccc3ccccc3n2)cc1` displayed a melting point of 169 to 172 °C. `CC(C)[C@H](OCc1ccccc1)[C@H]1[C@H]([N+](=O)[O-])[C@H](c2ccccc2)N[C@@H]1C(=O)NCC(=O)O` displayed a melting point of 71 to 72 °C.

As for `C#CC12CC3CC(C1)CC(C#C)(C3)C2`, the melting point is 46 °C. `CC(C)NC(=S)N1CCc2[nH]cnc2C1C1CCCCC1` (centres undefined): the melting point is 218 °C. On to `CC(C)(C)C(COC(N)=O)(NC(=O)C(=O)c1c[nH]c2cc(Br)ccc12)c1c[nH]c2ccccc12` (centres undefined), for which the melting point worked out at 145 °C. Next, `COc1ccc2c(c1)CCC1C2CCC2(C)C(=O)CC(C)C12` (centres undefined): 127 to 129 °C; `CCc1cc(O)c(C(C)=O)c(O)c1`: 121 to 123 °C; `CN(C)Cc1ccc2cc(NC(=O)c3ccc(-c4ccccc4)cc3)ccc2n1`: 191 to 194 °C. For `COC(=O)c1csc(NC(=O)C(CC2CCCC2)c2ccc(Cl)cc2)n1` (centres undefined), the melting point lay in the range of 156 to 157 °C. For `CC(C)(C)OOC(C)(C)c1ccc(C(C)(C)OOC(C)(C)C)cc1`, the melting point was 76 to 77 °C.

Consider `COC(=O)N1CCc2cc(S(=O)(=O)Cl)ccc21`, for which the melting point lay within 113 to 114 °C.

As for `Cc1oc(=O)oc1CS[C@H](C)[C@](O)(Cn1cncn1)c1ccc(F)cc1F` (racemic), the melting point lay within 173 to 174 °C.

`CC(C)(C)OC(=O)N1CCN(c2cccc3c2cnn3S(=O)(=O)c2ccccc2)CC1` had a melting point of 130 °C. `CCCCC#CCCOc1c(I)cc(I)cc1I` yielded a melting point of 45 to 49 °C. Consider `CCCCc1ccc(-c2ccc(CCc3ccc(C)cc3)cc2)c(F)c1`, for which the melting point was determined as 41 °C. Then `CC(C)=CCn1nc(C(=O)c2cccc(O)c2)c2ccccc21`, with 92 to 94 °C; and `Cc1ccc(-c2nc(Oc3ccccc3)nc(-c3ccc(C)cc3C)n2)c(C)c1`, with 96 to 98 °C. Next, `CN1C(O)=C(C(=O)Nc2ccccc2Cl)c2cscc2S1(=O)=O`: 152 to 155 °C; `CC(C)(O)C(=O)Nc1c(C(=O)c2ccccc2)[nH]c2cc(Cl)ccc12`: 234 to 238 °C; `COc1ccc(-c2[nH]nc3c2C(=O)c2c(NC(=O)Cc4ccc(Cl)cc4)cccc2-3)cc1`: 238 °C. For `O=Cc1ccc(-c2ncn(-c3ccc(OC(F)(F)F)cc3)n2)cc1`, the melting point was in the range of 137 to 140 °C. Next, `CCCCCCCN(CC(c1ccccc1)c1ccccc1)C(=O)Nc1ccc(F)cc1F`: 76 to 78 °C; `COc1cc(CO)c(-n2cccc2)cc1OC`: 92 to 93 °C. Then `COc1cc2c(cc1Nc1ncc(Cl)c(N[C@@H]3CCCC[C@H]3NS(C)(=O)=O)n1)CCOC(=O)N2C`, with 160 to 162 °C; and `CC(=O)OC1CCC2C3CCC4=CC(=O)C=C(C)C4(C)C3CCC12C` (centres undefined), with 144 °C.

`COc1cc(Cc2cnc(NC(=O)C(C)(C)C)nc2NC(=O)C(C)(C)C)cc(OC)c1OC` yielded a melting point of 153 to 154 °C. Next, `CCOC(=O)C1=CCC2(CC1S(=O)(=O)Nc1ccc(F)cc1Cl)OCCO2` (centres undefined): 120 to 122 °C; `COc1cc(/C=C/C(=O)Nc2ccc(Br)cc2)ccc1F`: 163 to 165 °C; `CC/C(=C(\c1ccc(/C=C/C(=O)O)cc1)c1ccc(OC(=O)CCC(F)(F)F)cc1)c1ccccc1`: 162 to 163 °C. Then `COc1ccc2cc([C@H](C)C(=O)NOCC(=O)O)ccc2c1`, with 152 to 153 °C; and `CN(C)C(=O)N1CC2(CCN(C(=O)Nc3nnc(-c4ccccc4)s3)CC2)c2ccccc21`, with 267 °C. Turning to `CN(C(Cc1ccc(O)cc1)CN1CCN(c2ccccc2)CC1)S(=O)(=O)c1cccc2cnccc12` (centres undefined), the melting point is 201 °C.

`C=C(c1ccc(C(C)C)cc1)c1c(C)c(NC(=O)CCCC)c(C)c2c1OCC2` registered a melting point of 172 to 173 °C. `CSc1nc(N)nc2c3nc(C)cc(C)c3nn12` displayed a melting point of 306 to 307 °C.

On to `COc1ccc(OC)c(CNC(=O)n2cc(F)c(=O)[nH]c2=O)c1`, for which the melting point was found to be 185 °C. As for `CC1(C)CCOC1=Cn1cncn1`, the melting point was determined as 47 °C. Next, `Cc1cnc2c(Br)c(NC3=NCCN3)ccc2n1`: 260 °C; `COc1cc(N)c(Cl)cc1C(=O)N[C@H]1CCN(CCNC(=O)N(C)C)C[C@H]1OC` (relative stereo): 206 °C; `CS(=O)(=O)N1CCC(N)CC1`: 65.3 to 65.7 °C.

The molecule `O=C(NCCN1CCC2(CC1)C(=O)NCN2c1ccccc1)c1cccs1` returned a melting point of 194 °C. Consider `CSC(=O)C(=O)c1ccnc(NC=O)c1`, for which the melting point was in the range of 165 to 167 °C.

As for `O=c1[nH]c2cc(Cl)cc(Cl)c2c(=O)n1Cc1cccc(I)c1`, the melting point lay in the range of 299 to 302 °C. Then `CCn1nc(-c2ccc(F)cc2)c(-c2ccc(S(C)(=O)=O)cc2)cc1=O`, with 177 to 179 °C. Next, `COc1cc(Cc2cnc(N)nc2N)cc2c(C)ccnc12`: 287 to 290 °C; `O=C(O)CCCn1c(-c2ccc3c(c2)OCO3)nc2ccccc21`: 177 to 180 °C; `CC(C)c1nc(CC(=O)N[C@H](C(=O)N[C@@H](Cc2ccccc2)C[C@H](O)[C@H](Cc2ccccc2)NC(=O)OCc2cncs2)C(C)C)cs1`: 153 to 155 °C. `CCCc1cccc2c(C=O)cc(OC)c(O)c12` displayed a melting point of 128 to 129 °C.

The molecule `O=C1CCC(N2Cc3c(NCc4ccco4)cccc3C2=O)C(=O)N1` (centres undefined) registered a melting point of 248 to 250 °C.

As for `COc1cc2c(Oc3cnc4[nH]ccc4c3)ncnc2cc1OCCCN1CCCC1`, the melting point was in the range of 184 to 186 °C.

Take `COc1ccc2cc(CCC3(C)OCCO3)cc(F)c2c1`: the melting point is 51 to 53 °C. Next, `Cc1cc(C)c(O)c(-c2cc(C(C)C)ccc2C(C)C)c1`: 179 °C. In turn, `COc1cccc2c1OC(CN1CC=C(c3c[nH]c4ncccc34)CC1)CO2` (centres undefined) showed a melting point of 207 to 210 °C. For the molecule `CCC(C)(C)c1ccc(OCCCCNC(=O)c2[nH]c3ccc(OC)cc3c2N)c(C(C)(C)CC)c1`, the melting point fell in the range of 145 to 146 °C. In turn, `COc1ccc(-c2cc(Cl)c3ccccc3n2)cc1C` showed a melting point of 90 to 92 °C. The molecule `CCCCc1cc(C(O)=S)cc(N)c1Cc1ccccc1` had a melting point of 136 to 138 °C.

With `CCCSc1sc(C(N)=O)c2c1-c1nn(C)cc1CC2`, the melting point lay in the range of 208 to 209 °C. Next, `COc1ccc(Nc2cnc3c(NCc4ccccc4)nc(NCCO)nc3c2)cc1`: 126 to 127 °C; `Oc1ccccc1-c1cc(-c2ccc(F)c(F)c2)cc(-c2ccc3ccccc3c2)n1`: 165 to 167 °C; `CN1CCc2c(cccc2NC(=O)c2ccccc2I)C1`: 215 to 216 °C.

In turn, `COc1cc(OCc2ccccn2)ccc1/C=C/c1cc(/C=C/c2cccc3ncccc23)[nH]n1` gave a melting point of 107 to 120 °C. In turn, `O=C1C=C(O)C(=O)c2cc(-c3ccccc3)ccc21` returned a melting point of 190 to 192 °C. With `Cc1ccc(S(=O)(=O)NCC2(N3CCN(C)CC3)CCCCC2)cc1`, the melting point lay within 128 to 130 °C. Next, `O=C(Nc1ccc(N2CCNCC2)c(C(F)(F)F)c1)c1ccc(F)c(OCc2cnc3ccccc3c2)c1`: 76 to 78 °C; `COC(=O)Nc1nc(C)cc(OC)n1`: 89 to 92.5 °C.

In the case of `COc1ccc2c(Br)csc2c1`, the melting point was 62 °C. Then `O=C(O)COc1cccc(CCc2nc(-c3cccs3)c(-c3cccs3)o2)c1`, with 106 to 107 °C; and `Cc1cc(Cl)c(N)c(Cl)c1`, with 50 to 52 °C.
